Where two headings read alike, the source gives them in different places.
Columns and labels:
[1] = biological target: T1, DCAF15 RBM39 ternary complex (Homo sapiens, UniProt Q14498+Q66K64, DEL276-383); assay: DCAF15 RBM39 complex formation assay (FRET); format: biochemical
T1 construct: Amino acids 150 to 331 of RBM39 were cloned into pGEX4T3; GST (from the pGEX4T3 vector, own knowledge) followed by a TEV cleavage site (N); made in house; host or cells: Sf9 baculovirus (DDB1ΔB/DCAF15); E. coli (RBM39 R1R2)
From the text: (§1) Proteins used for the assays were as follows: Human DDA1 (UniProt:Q9BW61), DDB1 (UniPro: Q16531), and DCAF15 (UniProt: Q66K64) coding sequences were cloned into pFastBac1 vectors and were co-expressed in Sf9 cells using Bac-to-Bac baculovirus expression system (Thermo Fisher Scientific). The expression construct for DCAF15 includes a N-terminal His6-tag to facilitate the purification.
DCAF15 RBM39 Complex Formation Assay
LANCE Eu-W1024 Anti-6×His and SureLight Allophycocyanin-anti-FLAG antibodies were purchased from Perkin Elmer. Human DDB1DB and His-tagged DCAF15 were co-expressed in baculovirus/sf9 system. […] The His-tagged DCAF15 contains six histidine residues directly preceding the DCAF15 sequence without any linker. An RBM39 fragment containing RRM1 and RRM2 was expressed in E. coli.
A compound of the present disclosure in DMSO (2 μL) was transferred to a 384-well assay plate. Compound was added in 14 points, 3-fold serial dilution (1 μM to 0.6 pico molar) in DMSO. […] FRET assay buffer (25 mM HEPES, pH 7.5, 100 mM NaCl, […], 0.5 mM TCEP, 0.005% Tween-20, 0.2 nM Eu-W1024 Anti-6×His, 50 nM SureLight Allophycocyanin-anti-FLAG, 20 nM DDB1DB/DCAF15, 50 nM RBM39 R1R2) was added and the resulting solution was incubated overnight at 4° C. […] Low signal controls containing no compound and high signal controls containing 10 mM indisulam were measured for each plate.
EC50 values were calculated using Dotmatics template equation for 4-parameter fit.
Results are expressed as % formation using the following equation: […]

[2] = biological target: T2, DCAF15 (DDA1-DDB1ΔB-DCAF15Δpro) (Homo sapiens, UniProt Q66K64, DEL276-383); assay: DCAF15 displacement assay (displacement FRET, probe PT7795); format: binding
T2 construct: made in house; host or cells: Sf9 (Bac-to-Bac baculovirus)
From the text: as §1
DCAF15 Displacement Assay (Displacement FRET KD)
Synthesis of the probe PT7795 is described in the article.
Binding of PT7795 to DDA1-DDB1AB-DCAF15Δpro was measured by the FRET signal between europium-labeled anti-His antibody (AD0205, Perkin Elmer) that is associated with His-tagged DCAF15 and ALX647 moiety in PT7795. […] After equilibrating for 2-3 hours at 4° C., the plate was removed from the incubator, briefly spun, then read on a Spark 10 (Tecan) at the excitation/emission wavelength of 340 nm/615 nm and 340 nm/665 nm.
Binding of compounds in this disclosure to DCAF15 was measured in a competition by the displacement of PT7795. The concentration of PT7795 was kept at 300 nM while the concentration of a compound was varied from 0.01 to 100 μM. The incubation time was increased to 18 hours for enhanced signal to noise level.
F=Fmin+(Fmax−Fmin)/(1+10^(logIC50−log[Compound])^n) (Equation 2)
The Kds can then be calculated from IC50s using Equation 3 (Cheng-Prusoff equation).

[3] = FRET ratio, 20 nM DDB1DB/DCAF15, 50 nM RBM39 R1R2, overnight at 4° C., read-out: DCAF15 RBM39 ternary complex EC50
[4] = displacement of PT7795 (300 nM), compound 0.01 to 100 μM, 18 hours incubation, read-out: DCAF15 displacement IC50

T1 sequence (Q66K64 with tags, fused parts or gaps DEL276-383): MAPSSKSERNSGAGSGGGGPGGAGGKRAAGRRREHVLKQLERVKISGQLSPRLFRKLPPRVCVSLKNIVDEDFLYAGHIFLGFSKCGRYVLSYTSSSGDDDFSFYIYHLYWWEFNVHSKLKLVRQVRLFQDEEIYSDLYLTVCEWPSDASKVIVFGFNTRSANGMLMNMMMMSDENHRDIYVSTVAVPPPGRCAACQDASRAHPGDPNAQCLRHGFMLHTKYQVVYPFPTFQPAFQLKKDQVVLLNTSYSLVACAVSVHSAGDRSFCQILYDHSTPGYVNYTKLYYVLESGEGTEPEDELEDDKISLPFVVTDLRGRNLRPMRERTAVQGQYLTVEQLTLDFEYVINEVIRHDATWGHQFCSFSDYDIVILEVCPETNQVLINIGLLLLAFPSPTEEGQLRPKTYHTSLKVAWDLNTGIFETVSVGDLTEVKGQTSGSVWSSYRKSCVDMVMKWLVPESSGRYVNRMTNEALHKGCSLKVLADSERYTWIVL
T1 sequence (Q14498 150-331, stated change not applied): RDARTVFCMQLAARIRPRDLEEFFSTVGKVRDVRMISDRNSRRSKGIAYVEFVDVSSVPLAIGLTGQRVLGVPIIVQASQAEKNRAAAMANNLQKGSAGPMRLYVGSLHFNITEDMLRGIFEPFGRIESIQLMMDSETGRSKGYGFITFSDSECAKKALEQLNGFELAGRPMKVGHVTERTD

Work on `Cn1ccc(CN2Cc3cc(Cl)c4c(Cl)c[nH]c4c3NS2(=O)=O)cc1=O` [Compound 61, 4-((6,7-dichloro-2,2-dioxido-4,9-dihydro-[1,2,6]thiadiazino[4,3-g]indol-3(1H)-yl)methyl)-1-methylpyridin-2(1H)-one] yielded an EC50 [1, 3] of 123 nM and an IC50 [2, 4] of 1240 nM.
Work on `Cn1c(CN2Cc3cc(Cl)c4c(Cl)c[nH]c4c3NS2(=O)=O)cccc1=O` [Compound 62, 6-((6,7-dichloro-2,2-dioxido-4,9-dihydro-[1,2,6]thiadiazino[4,3-g]indol-3(1H)-yl)methyl)-1-methylpyridin-2(1H)-one] yielded an EC50 [1, 3] of 155 nM and an IC50 [2, 4] of 1070 nM.
`CS(=O)(=O)CCCN1Cc2cc(Cl)c3c(Cl)c[nH]c3c2NS1(=O)=O` [Compound 77, 6,7-dichloro-3-(3-(methylsulfonyl)propyl)-1,3,4,9-tetrahydro-[1,2,6] thiadiazino[4,3-g]indole 2,2-dioxide] showed an EC50 [1, 3] of 0.8 nM and an IC50 [2, 4] of 680 nM.
`Nc1ccc(CN2Cc3cc(Cl)c4c(Cl)c[nH]c4c3NS2(=O)=O)cc1` [Compound 78, 3-(4-aminobenzyl)-6,7-dichloro-1,3,4,9-tetrahydro-[1,2,6]thiadiazino[4,3-g]indole 2,2-dioxide] showed an EC50 [1, 3] of 0.7 nM and an IC50 [2, 4] of 1170 nM.
Compound `COCCN1Cc2cc(F)c3c(Cl)c[nH]c3c2NS1(=O)=O` [Compound 79, 7-chloro-6-fluoro-3-(2-methoxyethyl)-1,3,4,9-tetrahydro-[1,2,6] thiadiazino[4,3-g]indole 2,2-dioxide] has an EC50 [1, 3] of 8.9 nM and an IC50 [2, 4] of 19500 nM.
`O=S1(=O)Nc2c(ccc3c(Cl)c[nH]c23)CN1C1CCCOC1` (stereo not shown) [Compound 80, 7-chloro-3-(tetrahydro-2H-pyran-3-yl)-1,3,4,9-tetrahydro-[1,2,6]thiadiazino[4,3-g]indole 2,2-dioxide] showed an EC50 [1, 3] of 18.2 nM and an IC50 [2, 4] of 1810 nM.
For `COCCN1Cc2ccc3c(Cl)c[nH]c3c2NS1(=O)=O` [Compound 81, 7-chloro-3-(2-methoxyethyl)-1,3,4,9-tetrahydro-[1,2,6] thiadiazino[4,3-g]indole 2,2-dioxide], the EC50 [1, 3] was 17.7 nM and the IC50 [2, 4] was 32000 nM.
With `O=S1(=O)Nc2c(ccc3c(Cl)c[nH]c23)CN1c1cccnc1` [Compound 82, 7-chloro-3-(pyridin-3-yl)-1,3,4,9-tetrahydro-[1,2,6]thiadiazino[4,3-g]indole 2,2-dioxide] the EC50 [1, 3] was 1.1 nM and the IC50 [2, 4] was 3320 nM.
Compound `O=S1(=O)Nc2c(cc(Cl)c3c(Cl)c[nH]c23)CN1CC1CC(O)C1` (stereo not shown) [Compound 88, 6,7-dichloro-3-((3-hydroxycyclobutyl)methyl)-1,3,4,9-tetrahydro-[1,2,6]thiadiazino[4,3-g]indole 2,2-dioxide] has an EC50 [1, 3] of 1.6 nM and an IC50 [2, 4] of 231 nM.
`O=S1(=O)Nc2c(cc(Cl)c3c(Cl)c[nH]c23)CN1CC1CCCO1` (stereo not shown) [Compound 89, 6,7-dichloro-3-((tetrahydrofuran-2-yl)methyl)-1,3,4,9-tetrahydro-[1,2,6] thiadiazino[4,3-g]indole 2,2-dioxide] gave an EC50 [1, 3] of 0.8 nM and an IC50 [2, 4] of 574 nM.
`O=S1(=O)Nc2c(cc(Cl)c3c(Cl)c[nH]c23)CN1CC1CCCNC1` (stereo not shown) [Compound 90, 6,7-dichloro-3-(piperidin-3-ylmethyl)-1,3,4,9-tetrahydro-[1,2,6] thiadiazino[4,3-g]indole 2,2-dioxide] was tested, and the EC50 [1] was 1 nM and the IC50 [2] was 274 nM.
`CC(=O)N1CCCC(CN2Cc3cc(Cl)c4c(Cl)c[nH]c4c3NS2(=O)=O)C1` (stereo not shown) [Compound 91, 1-(3-((6,7-dichloro-2,2-dioxido-4,9-dihydro-[1,2,6]thiadiazino[4,3-g]indol-3(1H)-yl)methyl)piperidin-1-yl) ethan-1-one] was tested, and the EC50 [1, 3] was 0.4 nM and the IC50 [2, 4] was 51.8 nM.
With `O=c1[nH]ccc(CN2Cc3cc(Cl)c4c(Cl)c[nH]c4c3NS2(=O)=O)c1Cl` [Compound 97, 3-chloro-4-((6,7-dichloro-2,2-dioxido-4,9-dihydro-[1,2,6]thiadiazino [4,3-g]indol-3(1H)-yl)methyl)pyridin-2(1H)-one] the EC50 [1, 3] was 1.7 nM.
